Source: ChEMBL document CHEMBL4017496 (J Med Chem, 2017)
The source made the active and inactive calls. The calls are words filed in the database; no cut-off is given here.

What was measured:
[1] = Induction of adipogenesis in human bone marrow-derived mesenchymal stem cells assessed as adiponectin level at 20 uM measured on day 7 after 48 hrs by ELISA; format: functional, Mesenchymal stem cell
[2] = Induction of adipogenesis in human bone marrow-derived mesenchymal stem cells assessed as adiponectin level at 4 uM measured on day 7 after 48 hrs by ELISA; format: functional, Mesenchymal stem cell
[3] = target: T1, Peroxisome proliferator-activated receptor alpha (Homo sapiens) (UniProt Q07869); assay: Displacement of Fluormone-Pan-PPAR Green from human GST-tagged PPARalpha LBD at 20 uM by TR-FRET assay relative to control
T1 sequence (whole entry): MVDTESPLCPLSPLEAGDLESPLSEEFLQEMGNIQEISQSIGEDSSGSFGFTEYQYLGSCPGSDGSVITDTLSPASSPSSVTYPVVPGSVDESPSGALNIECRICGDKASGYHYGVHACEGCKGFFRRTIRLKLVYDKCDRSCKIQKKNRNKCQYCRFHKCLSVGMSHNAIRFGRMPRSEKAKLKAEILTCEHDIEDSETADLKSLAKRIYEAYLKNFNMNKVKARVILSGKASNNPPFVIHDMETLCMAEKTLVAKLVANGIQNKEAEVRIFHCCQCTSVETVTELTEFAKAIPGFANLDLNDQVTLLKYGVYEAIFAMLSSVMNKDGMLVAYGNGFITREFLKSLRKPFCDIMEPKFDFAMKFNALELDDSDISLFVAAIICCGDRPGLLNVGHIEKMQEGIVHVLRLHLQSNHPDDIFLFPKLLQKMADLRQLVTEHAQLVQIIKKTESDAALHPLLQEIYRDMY

[4] = target: T2, Peroxisome proliferator-activated receptor delta (Homo sapiens, UniProt Q03181); assay: Displacement of Fluormone-Pan-PPAR Green from human GST-tagged PPARdelta LBD by TR-FRET assay
T2 sequence (Q03181 whole entry): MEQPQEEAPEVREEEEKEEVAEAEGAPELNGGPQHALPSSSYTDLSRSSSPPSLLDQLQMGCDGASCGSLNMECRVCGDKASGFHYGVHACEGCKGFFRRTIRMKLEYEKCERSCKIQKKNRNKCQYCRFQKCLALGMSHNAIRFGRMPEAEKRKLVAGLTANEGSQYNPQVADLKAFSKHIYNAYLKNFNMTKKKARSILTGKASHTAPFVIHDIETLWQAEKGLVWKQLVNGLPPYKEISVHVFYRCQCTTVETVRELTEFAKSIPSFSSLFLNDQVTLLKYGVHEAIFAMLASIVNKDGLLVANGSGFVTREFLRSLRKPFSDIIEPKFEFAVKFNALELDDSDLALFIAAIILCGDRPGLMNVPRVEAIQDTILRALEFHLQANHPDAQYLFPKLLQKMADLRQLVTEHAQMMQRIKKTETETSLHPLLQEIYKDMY

[5] = target: T3, Peroxisome proliferator-activated receptor gamma (Homo sapiens, UniProt P37231); assay: (§1) Displacement of Fluormone-Pan-PPAR Green from human GST-tagged PPARgamma LBD by TR-FRET assay
T3 sequence (P37231 whole entry): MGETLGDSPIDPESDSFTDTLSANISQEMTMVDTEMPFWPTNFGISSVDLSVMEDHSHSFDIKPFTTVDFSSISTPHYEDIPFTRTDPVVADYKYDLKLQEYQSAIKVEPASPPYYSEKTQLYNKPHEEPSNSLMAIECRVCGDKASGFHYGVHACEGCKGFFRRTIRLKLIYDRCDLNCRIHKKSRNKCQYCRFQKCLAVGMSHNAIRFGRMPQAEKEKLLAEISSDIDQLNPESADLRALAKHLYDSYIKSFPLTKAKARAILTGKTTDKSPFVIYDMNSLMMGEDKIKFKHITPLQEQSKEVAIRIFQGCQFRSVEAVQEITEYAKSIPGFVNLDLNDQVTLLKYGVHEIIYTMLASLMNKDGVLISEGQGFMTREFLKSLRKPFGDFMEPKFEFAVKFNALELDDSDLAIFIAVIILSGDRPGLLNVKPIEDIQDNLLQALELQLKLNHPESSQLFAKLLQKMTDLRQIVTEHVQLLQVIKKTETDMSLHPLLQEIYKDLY

[6] = target: T4, Peroxisome proliferator-activated receptor gamma (Homo sapiens) (UniProt P37231); assay: Displacement of Fluormone-Pan-PPAR Green from human GST-tagged PPARgamma LBD at 20 uM by TR-FRET assay relative to control
T4 sequence (whole entry): T3 sequence (P37231 whole entry)

Mesenchymal stem cell [7] = assay: Induction of adipogenesis in human bone marrow-derived mesenchymal stem cells assessed as adiponectin level at 20 to 30 uM measured on day 7 after 48 hrs by ELISA; format: functional, cell-based
[8] = target: T4, Peroxisome proliferator-activated receptor gamma (Homo sapiens); assay: Transactivation of human PPARgamma expressed in African green monkey CV1 cells at 10 uM by luciferase reporter gene assay relative to control; format: cell-based
Mus musculus [9] = assay: Antidiabetic activity in STZ-induced diabetic C57BL/6J mouse assessed as insulin sensitivity by measuring reduction of serum glucose levels administered po for 5 days measured at 1 and 4 hrs post last dose; format: functional, organism-based
[10] = target: T4, Peroxisome proliferator-activated receptor gamma (Homo sapiens); assay: as §1
[11] = target: T5, Peroxisome proliferator-activated receptor delta (Homo sapiens) (UniProt Q03181); assay: Transrepression of human GST-tagged PPARdelta LBD assessed as induction of corepressor SMRT-ID2 peptide recruitment by TR-FRET assay
T5 sequence (whole entry): T2 sequence (Q03181 whole entry)

[12] = target: Peroxisome proliferator-activated receptor delta (Homo sapiens) (UniProt Q03181); assay: Antagonist activity at human GST-tagged PPARdelta LBD assessed as reduction in GW501516-induced fluorescein-C33 coactivator recruitment at 1 uM by TR-FRET assay relative to control
Mus musculus [13] = assay: Antidiabetic activity in STZ-induced diabetic C57BL/6J mouse assessed as insulin sensitivity by measuring reduction of serum glucose levels at 20 mg/kg,po for 5 days measured at 1 and 4 hrs post last dose; format: functional, organism-based
[14] = target: T5, Peroxisome proliferator-activated receptor delta (Homo sapiens); assay: Transactivation of human GST-tagged PPARdelta LBD assessed as fluorescein-C33 coactivator recruitment at 10 uM by TR-FRET assay
[15] = target: T5, Peroxisome proliferator-activated receptor delta (Homo sapiens); assay: Displacement of Fluormone-Pan-PPAR Green from human GST-tagged PPARdelta LBD at 10 uM by TR-FRET assay relative to control
Mesenchymal stem cell [16] = assay: Induction of adipogenesis in human bone marrow-derived mesenchymal stem cells assessed as increase in adiponectin production at 20.4 uM after 7 days in presence of IDX; format: functional, cell-based
[17] = Induction of adipogenesis in mouse 7F2 cells transfected with human AR assessed as increase in […] at 1 to 10 uM after 7 to 12 days by staining based oil red O phase contrast microscopic method relative to control; format: functional
Adenosine receptor A3 = target: T6, Adenosine receptor A3 (Homo sapiens, UniProt P0DMS8); assay: Displacement of [125I]I-AB-MECA from human A3 adenosine receptor expressed in CHO cell membranes after 60 mins by gamma counting method
T6 sequence (P0DMS8 whole entry): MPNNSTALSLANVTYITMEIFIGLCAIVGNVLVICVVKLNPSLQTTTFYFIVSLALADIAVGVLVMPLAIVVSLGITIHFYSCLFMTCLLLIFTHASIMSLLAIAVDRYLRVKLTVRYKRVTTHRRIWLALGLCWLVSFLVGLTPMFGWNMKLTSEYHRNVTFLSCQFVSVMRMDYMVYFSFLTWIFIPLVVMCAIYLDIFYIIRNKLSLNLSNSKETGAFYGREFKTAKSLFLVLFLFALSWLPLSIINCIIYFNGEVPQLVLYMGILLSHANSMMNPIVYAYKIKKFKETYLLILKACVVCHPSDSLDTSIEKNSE

SMILES	Activity [1]	Activity [2]	inhibition [3]	Ki [4]	further results
CC(C)Cn1c(=O)n(C)c(=O)c2nc[nH]c21 [ISOBUTYLMETHYLXANTHINE]	100 pg/mL	100 pg/mL			
C[C@@H]1C[C@H]2[C@@H]3CCC4=CC(=O)C=C[C@]4(C)[C@@]3(F)[C@@H](O)C[C@]2(C)[C@@]1(O)C(=O)CO [DEXAMETHASONE]	100 pg/mL	100 pg/mL			
O=C(NC1CCC1)[C@H]1S[C@@H](n2cnc3c(NCc4cccc(I)c4)ncnc32)[C@H](O)[C@@H]1O	633 pg/mL	323 pg/mL	11.7%	2610 nM	Ki [5]: 170 nM
O[C@@H]1[C@H](O)CS[C@H]1n1cnc2c(NCc3cccc(Cl)c3)nc(Cl)nc21	442 pg/mL	196 pg/mL	4.5%		inhibition [6]: 40.8%
CCNC(=O)[C@H]1S[C@@H](n2cnc3c(NCc4cccc(I)c4)ncnc32)[C@H](O)[C@@H]1O	242 pg/mL	118 pg/mL	29.3%	3150 nM	inhibition [6]: 37.1%
O=C(NCC1CC1)[C@H]1S[C@@H](n2cnc3c(NCc4cccc(I)c4)ncnc32)[C@H](O)[C@@H]1O	490 pg/mL	242 pg/mL	16.4%		
CNC(=O)[C@@]12C[C@@H]1[C@@H](n1cnc3c(NCc4cccc(Cl)c4)nc(C#Cc4ccc(F)c(F)c4)nc31)[C@H](O)[C@@H]2O					Activity (Mesenchymal stem cell [7]): inactive
O=C(NC1CC1)[C@H]1S[C@@H](n2cnc3c(NCc4cccc(I)c4)ncnc32)[C@H](O)[C@@H]1O	249 pg/mL	174 pg/mL	37.6%	2980 nM	inhibition [6]: 49.1%
O[C@@H]1[C@H](O)CS[C@H]1n1cnc2c(NCc3cccc(I)c3)nc(Cl)nc21	857 pg/mL	192 pg/mL		4.83 nM	Activity [8]: 54.3%; Activity (Mus musculus [9]): Dose-dependent effect; inhibition [10]: Dose-dependent effect; Activity [11]: Dose-dependent effect; inhibition [12]: 57%; Activity (Mus musculus [13]): Active; Activity [14]: inactive
COc1ccc(Cl)cc1C(=O)NCCc1ccc(S(=O)(=O)NC(=O)NC2CCCCC2)cc1 [GLYBURIDE]	1000 pg/mL	838 pg/mL			inhibition [15]: 21.5%
CCNC(=O)[C@H]1O[C@@H](n2cnc3c(N)ncnc32)[C@H](O)[C@@H]1O [NECA]					Activity (Mesenchymal stem cell [16]): inactive; Activity [17]: 20 - 30%
CNC(=O)[C@H]1S[C@@H](n2cnc3c(NCc4cccc(I)c4)ncnc32)[C@H](O)[C@@H]1O	343 pg/mL	126 pg/mL	13.5%	2540 nM	inhibition [6]: 46.9%; Activity [8]: 46.9%; Activity [11]: Active; Ki (Adenosine receptor A3): 0.3 nM; inhibition [12]: 22%; Activity (Mus musculus [13]): Active; Activity [14]: inactive
Cc1c(C)c2c(c(C)c1O)CCC(C)(COc1ccc(CC3SC(=O)NC3=O)cc1)O2 (centres undefined)					inhibition [15]: 23.4%
O[C@@H]1[C@H](O)CS[C@H]1n1cnc2c(NCc3cccc(I)c3)ncnc21					Ki (Adenosine receptor A3): 1.5 nM
CCCn1cc2c(nc(NC(=O)Nc3ccc(OC)cc3)n3nc(-c4ccco4)nc23)n1					Activity (Mesenchymal stem cell [7]): inactive
CNC(=O)[C@H]1S[C@@H](n2cnc3c(NCc4cccc(I)c4)nc(Cl)nc32)[C@H](O)[C@@H]1O	738 pg/mL	131 pg/mL	37.8%	160 nM	Ki [5]: 4600 nM
OC[C@H]1O[C@@H](n2cnc3c(NC4CCCC4)nc(Cl)nc32)[C@H](O)[C@@H]1O					Activity (Mesenchymal stem cell [16]): inactive; Activity [17]: 20 - 30%
CCNC(=O)[C@H]1O[C@@H](n2cnc3c(N)nc(NCCc4ccc(CCC(=O)O)cc4)nc32)[C@H](O)[C@@H]1O					Activity (Mesenchymal stem cell [16]): inactive
O[C@@H]1[C@H](O)CS[C@H]1n1cnc2c(NCc3ccccc3Cl)nc(Cl)nc21	268 pg/mL	107 pg/mL	19.2%	620 nM	inhibition [6]: 19.2%
